The assay has as its target HPK1 (MAP4K1) (Homo sapiens, UniProt Q92918). Kind of assay: FRET Assay for HPK1 (MAP4K1): one step binding assay, displacement of labeled tracer. The following applies: for inhibition at 1 µM: 1 μM compound; for inhibition at 1 µM / inhibition at 10 µM: FRET ratio 665/620, percent of control; for inhibition at 10 µM: 10 μM compound; for pIC50: dose response curve, nonlinear regression. The method in brief: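 TR-FRET tracer-displacement binding assay. GST-tagged HPK1 (10 nM) and Eu-anti-GST antibody (4 nM) were pre-incubated with compound on ice for 15 min in 50 mM HEPES pH 7.5, 10 mM MgCl2, 1 mM EGTA, 0.01% Brij-35 (3% DMSO final). Kinase Tracer 222 (20 nM) was then added for 1 h at room temperature. IC50 came from nonlinear regression of percent of control; percent inhibition was also given at 1.0 and 10.0 μM.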

pIC50: −log10 of the molar value. Where only a bound is given, the exact number is not on record here.

Chain of HPK1 (MAP4K1) (Q92918 whole entry): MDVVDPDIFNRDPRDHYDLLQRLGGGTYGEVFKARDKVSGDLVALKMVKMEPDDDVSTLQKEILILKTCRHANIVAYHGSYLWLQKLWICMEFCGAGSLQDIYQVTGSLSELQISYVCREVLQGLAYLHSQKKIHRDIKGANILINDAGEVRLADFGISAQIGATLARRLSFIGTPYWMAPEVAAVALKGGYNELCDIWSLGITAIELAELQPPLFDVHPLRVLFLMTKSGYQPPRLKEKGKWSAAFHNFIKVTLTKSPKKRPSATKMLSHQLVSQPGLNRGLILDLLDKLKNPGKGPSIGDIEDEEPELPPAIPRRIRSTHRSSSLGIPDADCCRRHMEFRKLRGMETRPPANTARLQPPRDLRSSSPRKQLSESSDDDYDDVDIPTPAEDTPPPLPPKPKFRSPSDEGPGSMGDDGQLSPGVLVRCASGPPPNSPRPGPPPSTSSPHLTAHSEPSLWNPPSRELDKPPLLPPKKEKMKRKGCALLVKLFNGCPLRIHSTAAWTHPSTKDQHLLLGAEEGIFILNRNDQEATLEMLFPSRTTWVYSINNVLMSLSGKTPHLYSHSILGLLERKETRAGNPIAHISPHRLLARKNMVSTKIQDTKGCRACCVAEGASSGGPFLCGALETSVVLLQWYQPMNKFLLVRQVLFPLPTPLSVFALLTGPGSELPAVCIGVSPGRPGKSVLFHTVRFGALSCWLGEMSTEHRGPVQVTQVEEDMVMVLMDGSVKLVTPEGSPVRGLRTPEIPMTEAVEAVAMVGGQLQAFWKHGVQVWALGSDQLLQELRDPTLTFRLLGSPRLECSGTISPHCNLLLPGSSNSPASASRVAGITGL

A word on the inhibition: it is the drop in the measured response relative to a control, in per cent. As usually defined, the pIC50 is −log10 of the IC50, conventionally taken in molar units. For the compound `C/C(Nc1ccc(C)nc1)=C1/C(=O)Nc2cnc(-c3cnccc3C)cc21` [Example 123, (Z)-5-(4-Methylpyridin-3-yl)-3-(1-((6-methylpyridin-3-yl)amino)ethylidene)-1H-pyrrolo[2,3-c]pyridin-2(3H)-one], the inhibition at 1 µM is 81.8%, the inhibition at 10 µM turned out to be 88.2% and the pIC50 is over 7.30.

`COc1cccc(F)c1-c1cc2c(cn1)NC(=O)/C2=C(/C)Nc1ccc(N2CCNCC2)cn1` [Example 124, (Z)-5-(2-Fluoro-6-methoxyphenyl)-3-(1-((5-(piperazin-1-yl)pyridin-2-yl)amino)ethylidene)-1H-pyrrolo[2,3-c]pyridin-2(3H)-one]: the inhibition at 1 µM turned out to be 79.6%, the inhibition at 10 µM was 89.7% and the pIC50 was over 7.30.

Turning to `COc1cccc(F)c1-c1cc2c(cn1)NC(=O)/C2=C(/C)Nc1ccc(N2CCNCC2)nc1` [Example 125, (Z)-5-(2-Fluoro-6-methoxyphenyl)-3-(1-((6-(piperazin-1-yl)pyridin-3-yl)amino)ethylidene)-1H-pyrrolo[2,3-c]pyridin-2(3H)-one], the inhibition at 1 µM is 77.7%, the inhibition at 10 µM was found to be 84.2% and the pIC50 was over 7.30.

`C/C(Nc1cc2n(n1)CC(=O)N(C)C2)=C1/C(=O)Nc2cnc(-c3cnccc3C)cc21` [Example 126, (Z)-5-Methyl-2-((1-(5-(4-methylpyridin-3-yl)-2-oxo-1H-pyrrolo[2,3-c]pyridin-3(2H)-ylidene)ethyl)amino)-4,5-dihydropyrazolo[1,5-a]pyrazin-6(7H)-one]: the inhibition at 1 µM came to 82.4% and the pIC50 is over 7.30.

Regarding `C/C(Nc1cc2n(n1)CCN(C)C2=O)=C1/C(=O)Nc2cnc(-c3cnccc3C)cc21` [Example 127, (Z)-5-Methyl-2-((1-(5-(4-methylpyridin-3-yl)-2-oxo-1H-pyrrolo[2,3-c]pyridin-3(2H)-ylidene)ethyl)amino)-6,7-dihydropyrazolo[1,5-a]pyrazin-4(5H)-onc], the inhibition at 1 µM stood at 75.1%, the inhibition at 10 µM came to 81.5% and the pIC50 was over 7.30.

Consider `C/C(Nc1ccn(CC(=O)N(C)C)n1)=C1/C(=O)Nc2cnc(-c3cnccc3C)cc21` [Example 128, (Z)-N,N-Dimethyl-2-(3-((1-(5-(4-methylpyridin-3-yl)-2-oxo-1H-pyrrolo[2,3-c]pyridin-3(2H)-ylidene)ethyl)amino)-1H-pyrazol-1-yl)acetamide], for which the inhibition at 1 µM amounted to 79.2%, the inhibition at 10 µM was determined as 89.8% and the pIC50 is over 7.30.

For the compound `C/C(Nc1cc(C)n(C)n1)=C1/C(=O)Nc2cnc(-c3cnccc3C)cc21` [Example 129, (Z)-3-(1-((1,5-dimethyl-1H-pyrazol-3-yl)amino)ethylidene)-5-(4-methylpyridin-3-yl)-1H-pyrrolo[2,3-c]pyridin-2(3H)-one], the inhibition at 1 µM turned out to be 76.4%, the inhibition at 10 µM is 82.2% and the pIC50 is over 7.30.

Consider `CC(=O)N1CCC(n2ccc(N/C(C)=C3\C(=O)Nc4cnc(-c5cnccc5C)cc43)n2)CC1` [Example 130, (Z)-3-(1-((1-(1-Acetylpiperidin-4-yl)-1H-pyrazol-3-yl)amino)ethylidene)-5-(4-methylpyridin-3-yl)-1H-pyrrolo[2,3-c]pyridin-2(3H)-one], for which the inhibition at 1 µM was found to be 79.4%, the inhibition at 10 µM is 84.8% and the pIC50 is over 7.30.

Take `C/C(Nc1ccn(CC(=O)N2CCOCC2)n1)=C1/C(=O)Nc2cnc(-c3cnccc3C)cc21` [Example 131, (Z)-5-(4-Methylpyridin-3-yl)-3-(1-((1-(2-morpholino-2-oxoethyl)-1H-pyrazol-3-yl)amino)ethylidene)-1H-pyrrolo[2,3-c]pyridin-2(3H)-one]: the inhibition at 1 µM turned out to be 82.2%, the inhibition at 10 µM was 83.7% and the pIC50 is over 7.30.

For `C/C(Nc1cc(C)nn1C)=C1/C(=O)Nc2cnc(-c3cnccc3C)cc21` [Example 132, (Z)-3-(1-((1,3-Dimethyl-1H-pyrazol-5-yl)amino)ethylidene)-5-(4-methylpyridin-3-yl)-1H-pyrrolo[2,3-c]pyridin-2(3H)-one], the inhibition at 1 µM was found to be 81%, the inhibition at 10 µM was found to be 80.9% and the pIC50 is 6.30 to 7.00.

For `C/C(Nc1ccn(C[C@H](C)O)n1)=C1/C(=O)Nc2cnc(-c3cnccc3C)cc21` [Example 133, (S,Z)-3-(1-((1-(2-Hydroxypropyl)-1H-pyrazol-3-yl)amino)ethylidene)-5-(4-methylpyridin-3-yl)-1H-pyrrolo[2,3-c]pyridin-2(3H)-one], the inhibition at 1 µM was 79.9%, the inhibition at 10 µM was 88% and the pIC50 is over 7.30.

For `C/C(Nc1ccn([C@@H](C)CO)n1)=C1/C(=O)Nc2cnc(-c3cnccc3C)cc21` [Example 134, (S,Z)-3-(1-((1-(1-Hydroxypropan-2-yl)-1H-pyrazol-3-yl)amino)ethylidene)-5-(4-methylpyridin-3-yl)-1H-pyrrolo[2,3-c]pyridin-2(3H)-one], the inhibition at 1 µM turned out to be 83.6%, the inhibition at 10 µM turned out to be 85.2% and the pIC50 is over 7.30.

Turning to `C/C(Nc1cn(C)nc1C)=C1/C(=O)Nc2cnc(-c3cnccc3C)cc21` [Example 135, (Z)-3-(1-((1,3-Dimethyl-1H-pyrazol-4-yl)amino)ethylidene)-5-(4-methylpyridin-3-yl)-1H-pyrrolo[2,3-c]pyridin-2(3H)-one], the inhibition at 1 µM worked out at 78.5%, the inhibition at 10 µM was 83.9% and the pIC50 is 7.00 to 7.30.

In the case of `C/C(Nc1ccn(C[C@@H](C)O)n1)=C1/C(=O)Nc2cnc(-c3cnccc3C)cc21` [Example 136, (R,Z)-3-(1-((1-(2-Hydroxypropyl)-1H-pyrazol-3-yl)amino)ethylidene)-5-(4-methylpyridin-3-yl)-1H-pyrrolo[2,3-c]pyridin-2(3H)-one], the inhibition at 1 µM was determined as 82.3%, the inhibition at 10 µM stood at 78.9% and the pIC50 is over 7.30.

As for `C/C(Nc1ccn([C@H](C)CO)n1)=C1/C(=O)Nc2cnc(-c3cnccc3C)cc21` [Example 137, (R,Z)-3-(1-((1-(1-Hydroxypropan-2-yl)-1H-pyrazol-3-yl)amino)ethylidene)-5-(4-methylpyridin-3-yl)-1H-pyrrolo[2,3-c]pyridin-2(3H)-one], the inhibition at 1 µM was 80.7%, the inhibition at 10 µM worked out at 80.2% and the pIC50 was over 7.30.

On to `C/C(Nc1ccn(C)n1)=C1/C(=O)Nc2cnc(-c3cncc4c3OCC(=O)N4)cc21` [Example 138, (Z)-8-(3-(1-((1-Methyl-1H-pyrazol-3-yl)amino)ethylidene)-2-oxo-2,3-dihydro-1H-pyrrolo[2,3-c]pyridin-5-yl)-2H-pyrido[4,3-b][1,4]oxazin-3(4H)-one], for which the inhibition at 1 µM stood at 90.7% and the pIC50 was over 7.30.

As for `C/C(Nc1ccn(C)n1)=C1/C(=O)Nc2cc(C#N)c(-c3cnccc3C)cc21` [Example 139, (Z)-3-(1-((1-Methyl-1H-pyrazol-3-yl)amino)ethylidene)-5-(4-methylpyridin-3-yl)-2-oxoindoline-6-carbonitrile], the inhibition at 1 µM amounted to 77%, the inhibition at 10 µM was 84.5% and the pIC50 is over 7.30.

With `C/C(Nc1ccn(C)n1)=C1/C(=O)Nc2cnc(-c3cncc(N)c3C)cc21` [Example 140, (Z)-5-(5-Amino-4-methylpyridin-3-yl)-3-(1-((1-methyl-1H-pyrazol-3-yl)amino)ethylidene)-1H-pyrrolo[2,3-c]pyridin-2(3H)-one], the inhibition at 1 µM was 79.8%, the inhibition at 10 µM came to 91.3% and the pIC50 was over 7.30.

`C/C(Nc1ccn(CC(C)(C)O)n1)=C1/C(=O)Nc2cnc(-c3c(C)cccc3F)cc21` [Example 141, (Z)-5-(2-Fluoro-6-methylphenyl)-3-(1-((1-(2-hydroxy-2-methylpropyl)-1H-pyrazol-3-yl)amino)ethylidene)-1H-pyrrolo[2,3-c]pyridin-2(3H)-one]: the inhibition at 1 µM worked out at 80%, the inhibition at 10 µM was 85.9% and the pIC50 was 7.00 to 7.30.

`C/C(Nc1ccn(C(C)(C)C#N)n1)=C1/C(=O)Nc2cnc(-c3c(C)cccc3F)cc21` [Example 142, (Z)-2-(3-((1-(5-(2-Fluoro-6-methylphenyl)-2-oxo-1H-pyrrolo[2,3-c]pyridin-3(2H)-ylidene)ethyl)amino)-1H-pyrazol-1-yl)-2-methylpropanenitrile]: the inhibition at 1 µM came to 77.9%, the inhibition at 10 µM turned out to be 80.8% and the pIC50 was over 7.30.

Regarding `COCCn1ccc(N/C(C)=C2\C(=O)Nc3cnc(-c4cnccc4C)cc32)n1` [Example 143, (Z)-3-(1-((1-(2-Methoxyethyl)-1H-pyrazol-3-yl)amino)ethylidene)-5-(4-methylpyridin-3-yl)-1H-pyrrolo[2,3-c]pyridin-2(3H)-one], the inhibition at 1 µM was 80.4%, the inhibition at 10 µM is 83.8% and the pIC50 is over 7.30.

Consider `COc1cccc(F)c1-c1cc2c(cn1)NC(=O)/C2=C(/C)Nc1ccn(CC(C)(C)O)n1` [Example 144, (Z)-5-(2-Fluoro-6-methoxyphenyl)-3-(1-((1-(2-hydroxy-2-methylpropyl)-1H-pyrazol-3-yl)amino)ethylidene)-1H-pyrrolo[2,3-c]pyridin-2(3H)-one], for which the inhibition at 1 µM was 80.5%, the inhibition at 10 µM is 84.6% and the pIC50 was over 7.30.

As for `C/C(Nc1ccn(C(C)(C)CO)n1)=C1/C(=O)Nc2cnc(-c3cnccc3C)cc21` [Example 145, (Z)-3-(1-((1-(1-Hydroxy-2-methylpropan-2-yl)-1H-pyrazol-3-yl)amino)ethylidene)-5-(4-methylpyridin-3-yl)-1H-pyrrolo[2,3-c]pyridin-2(3H)-one], the inhibition at 1 µM came out at 79.4%, the inhibition at 10 µM amounted to 83.9% and the pIC50 was over 7.30.

The values above are taken from patent US20230009626A1 (ICHNOS SCIENCES S.A., priority 2018, published 2023).
